The subject of one experiment is HL-60. Put plainly: Antiproliferative activity in human promyeloid leukemia cells (HL-60). Format: functional.
For experiment [1], the target named is T1, Vitamin D-binding protein (Rattus norvegicus) (UniProt P04276).
T1 sequence (whole entry): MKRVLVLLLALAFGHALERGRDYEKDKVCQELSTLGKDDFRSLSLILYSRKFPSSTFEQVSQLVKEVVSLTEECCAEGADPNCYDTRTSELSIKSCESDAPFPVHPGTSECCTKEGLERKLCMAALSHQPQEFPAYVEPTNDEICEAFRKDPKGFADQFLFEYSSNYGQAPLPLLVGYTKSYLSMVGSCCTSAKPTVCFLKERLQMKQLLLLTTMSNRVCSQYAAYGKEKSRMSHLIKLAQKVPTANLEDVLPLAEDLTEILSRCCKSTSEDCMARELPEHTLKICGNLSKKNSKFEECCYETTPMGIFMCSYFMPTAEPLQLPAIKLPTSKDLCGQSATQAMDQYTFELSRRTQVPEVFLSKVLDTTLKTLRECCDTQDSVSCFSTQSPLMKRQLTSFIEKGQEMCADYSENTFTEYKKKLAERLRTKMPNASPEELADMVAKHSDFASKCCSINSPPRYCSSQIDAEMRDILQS
Put plainly: Relative binding potency for rat vitamin D binding protein (DBP) by competitive displacement with [3H]1-alpha,25(OH)2D3.

Experiment [2] has as its target T2, Vitamin D3 receptor (Bos taurus) (UniProt Q28037).
T2 sequence (whole entry): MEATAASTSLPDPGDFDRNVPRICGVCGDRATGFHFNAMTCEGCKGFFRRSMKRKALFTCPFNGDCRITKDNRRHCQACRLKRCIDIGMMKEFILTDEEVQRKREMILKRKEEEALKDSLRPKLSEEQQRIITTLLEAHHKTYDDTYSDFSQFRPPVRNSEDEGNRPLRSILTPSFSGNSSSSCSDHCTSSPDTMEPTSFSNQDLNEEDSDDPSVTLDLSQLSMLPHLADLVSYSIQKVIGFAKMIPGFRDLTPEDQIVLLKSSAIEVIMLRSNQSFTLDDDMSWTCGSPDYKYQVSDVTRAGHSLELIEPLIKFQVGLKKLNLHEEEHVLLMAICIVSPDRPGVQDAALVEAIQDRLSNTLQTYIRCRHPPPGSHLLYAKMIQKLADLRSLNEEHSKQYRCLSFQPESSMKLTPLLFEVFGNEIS
Briefly: Relative binding for bovine thymus vitamin D receptor (VDR) by displacement with [3H]1-alpha,25(OH)2D3.

`C=C1/C(=C\C=C2/CCC[C@]3(C)[C@@H]([C@H](C)CCCC(C)(C)O)CC[C@@H]23)C[C@@H](O)C[C@@H]1O` [CALCITRIOL] had a Relative potency in the experiment on HL-60 of 1. Moreover, the Relative binding potency in experiment [1] and in experiment [2] was 1 throughout.

In the case of `C=C1/C(=C\C=C2/CCC[C@@]3(C)C2CC[C@@H]3[C@H](C)CCCC(C)(C)O)C[C@@H](O)[C@@H](OCCCO)[C@@H]1O` (stereo partly specified), the Relative binding potency in experiment [1] worked out at 4.1; in experiment [2], 0.7.

In the experiment on HL-60, `C=C1/C(=C\C=C2/CCC[C@@]3(C)C2CC[C@@H]3[C@H](C)OCCC(C)(C)O)C[C@@H](O)C[C@H]1O` (stereo partly specified) yielded a Relative potency of 0.003. In addition, the Relative binding potency in experiment [1] and in experiment [2] was 0.007 in each case.

Turning to `C=C1/C(=C\C=C2/CCC[C@@]3(C)C2CC[C@@H]3[C@H](C)CCCC(C)(C)O)C[C@@H](O)[C@@H](OCCCO)[C@H]1O` (stereo partly specified), the values for the Relative binding potency in experiment [1] and in experiment [2] were 6.7 and 0.003, respectively.

As to `C=C1/C(=C\C=C2/CCC[C@]3(C)[C@@H]([C@H](C)OCCC(C)(C)O)CC[C@@H]23)C[C@@H](O)C[C@@H]1O` [MAXACALCITOL], the Relative potency with HL-60 came to 3.1. Also, the Relative binding potency in experiment [1] was 0.002; in experiment [2] it was 0.6.

Turning to `C=C1/C(=C\C=C2/CCC[C@@]3(C)C2CC[C@@H]3[C@H](C)CCCC(C)(C)O)C[C@@H](O)C[C@H]1O` (stereo partly specified), in the experiment with HL-60, the Relative potency is 0.2. The Relative binding potency stood at 2.9 in experiment [1] and 0.2 in experiment [2].
